Measured values taken from PubChem BioAssay (NCI).
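GI50 = concentration required for 50% inhibition of growth. TGI is the concentration that stops growth completely.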

Key:
Assay in all cases: NCI tumour cell line growth inhibition, 384-well format
[1] = test system: RXF 393 renal
[2] = test system: NCI-H460 NSCLC
[3] = test system: NCI/ADR-RES ovarian
[4] = test system: SF-268 CNS
[5] = test system: CAKI-1 renal
[6] = test system: OVCAR-4 ovarian
[7] = test system: SK-OV-3 ovarian
[8] = test system: UO-31 renal
[9] = test system: CCRF-CEM leukemia
[10] = test system: MCF7 breast
[11] = test system: OVCAR-5 ovarian
[12] = test system: A549 NSCLC
[13] = test system: COLO 205 colon

CC[C@H](Nc1ncnc2nc[nH]c12)c1oc2ccccc2c(=O)c1-c1cccc(F)c1
GI50 [1]: 21.1 µM | TGI [1]: > 69.5 µM | GI50 [2]: 34.7 µM | TGI [2]: > 100 µM | GI50 [3]: 24 µM | TGI [3]: 60.4 µM | GI50 [4]: 29.8 µM | TGI [4]: > 89.4 µM | GI50 [5]: 28.6 µM | TGI [5]: > 100 µM | GI50 [6]: 17.9 µM | TGI [6]: 54.2 µM | GI50 [7]: 24.5 µM | TGI [7]: 63.8 µM | GI50 [8]: 3.16 µM | TGI [8]: > 100 µM | GI50 [9]: 16.8 µM | TGI [9]: 31 µM | GI50 [10]: 29.6 µM | TGI [10]: > 87.3 µM | GI50 [11]: 39.9 µM | TGI [11]: > 100 µM | GI50 [12]: 27.9 µM | TGI [12]: > 100 µM | GI50 [13]: 42.4 µM | TGI [13]: > 100 µM
